Test results as given in patent publication US20110237686A1, “FORMULATIONS AND METHODS OF USE” (Cerulean Pharma Inc, priority 2010, published 2011).
Where “and” joins values, the source holds several entries; their conditions need not be identical. Equal values may be shown once.

What was measured:
B16.F10 cells = assay: CellTiter-Glo Luminescent Cell Viability Assay (cytotoxicity of nanoparticles); type: cell-based, mouse; conditions: for IC50: Mus musculus, B16.F10 cells, 24, 48 and 72 hours of incubation tested, time of the IC50 not stated
Experimental: The Cytotoxicity of nanoparticles formed from polymer drug conjugates was evaluated using the following protocol. […] B16.F10 cells, grown to 85-90% confluency in 150 cm^2 flasks (passage<30), were resuspended in media (MEM-alpha, 10% HI-FBS, 1× antibiotic-antimycotic) and added to 96-well opaque-clear bottom plates at a concentration of 1500 cells/well in 200 μL/well. The cells were incubated at 37° C. with 5% CO2 for 24 hours. The following day, serial dilutions of 2×concentrated particles and 2× concentrated free drug were made in 12-well reservoirs with media to specified concentrations. The media in the plates was replaced with 100 μL of fresh media and 100 μL of the corresponding serially diluted drug. Three sets of plates were prepared with duplicate treatments. Following 24, 48 and 72 hours of incubation at 37° C. with 5% CO2, the media in the plates was replaced with 100 μL of fresh media and […] of CTG solution, and then incubated for 5 minutes on a plate shaker at room temperature set to 450 rpm and allowed to rest for 15 minutes. Viable cells were measured by luminescence using a microtiter plate reader. The data was plotted as % viability vs. concentration and standardized to untreated cells.

[1] = system: normal male C57BL/6 non-tumor-bearing mice; assay: Tolerability in normal non-tumor-bearing mice (body weight, CBC, serum chemistry, ataxia, sciatic nerve histology); type: in vivo, mouse; conditions: for Lymphocyte mean / Neutrophil mean / WBC # mean: blood Day 14; for mice developing ataxia / Ataxia (%): n=5/group; for Ataxia (%): intravenous q7d×2, male C57BL/6 mice, to Day 14
Experimental: Treatments were administered intravenously on a q7d×2 schedule, i.e., two treatments seven days apart (the first treatment was on Day one). The study ended on Day 14, six days after the 2nd treatment. Blood was collected for complete blood count (CBC) and serum chemistry. Leg muscles were collected so that nerve degeneration could be assessed from the sciatic nerve.

[2] = system: HCT-116 colon xenograft model; assay: In vivo efficacy in HCT-116 colon xenograft model; set-up: species or system mouse; conditions: 30 mg/kg IV; male CD-1 nude mice
Experimental: HCT-116 cells were grown in culture to confluency in McCoy's 5a medium containing 10% FBS and 1% penicillin/streptomycin and then resuspended in McCoy's 5a (passage 4).
The treatments were administered 1V into the tail vein at the respective dose volumes (refer to previous paragraph), beginning on post-implantation Day 13, when the mean tumor volume was 131 mm3.

[3] = system: SK-OV-3 ovarian human xenograft model; assay: In vivo efficacy in SK-OV-3 ovarian human xenograft model; set-up: species or system mouse
Experimental: SK-OV-3 cells were grown in culture to confluency in RPMI medium containing 10% FBS and 1% penicillin/streptomycin and then resuspended in RPMI (passage 4) for implantation into mice. […]

[4] = system: MDA-MB-435 melanoma human xenograft model; assay: In vivo efficacy in MDA-MB-435 melanoma human xenograft model; set-up: species or system mouse
Experimental: MDA-MB-435 cells were grown in culture to confluency in RPMI medium containing 10% FBS and 1% penicillin/streptomycin and then resuspended in RPMI (passage 4) for implantation into mice. A volume of 0.1 mL containing 4.0×10^6 cells MDA-MB-435 cells were implanted into the mammary gland of female CD-1 nude mice on Day 1.

[5] = system: B16.F10 murine melanoma model; assay: Efficacy and tolerability of PEGylated docetaxel-5050 PLGA-O-acetyl nanoparticles in B16.F10 murine melanoma model; type: in vivo, mouse
Experimental: Refer to table for detailed description of formulations.
Tumor volume was calculated with the following equation: (width×width×length)/2 mm3.

[6] = Lyophilization using HP-β-CD, freezing with liquid nitrogen and vacuum at room temperature; type: physicochemical; conditions: PEGylated nanoparticles A, polymer 31.25 mg/mL, cryoprotectant 40 mg/mL (1.28:1 w/w), vacuum at room temperature;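 also: cyclodextrins or their derivatives tested as cryoprotectant during lyophilization of PEGylated nanoparticles, assessing particle size growth attributed to PEG crystallization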
Experimental: In this example, a new strategy of using cyclodextrins and their derivatives as a cryoprotectant was tested. […] A cryoprotectant is needed to lyophilize liquid formulation that contain PEGylated nanoparticles A (Entries #1 and #2).

[7] = Simple lyophilization of PLGA7K-PVA-PEG2K-30 and PLGA7K-PVA-PEG5K-30 PEGylated nanoparticle formulations; type: physicochemical; conditions: 2K PEG PLGA nanoparticles 20 mg/mL, cryoprotectant 20 mg/mL (1:1 w/w)
Text: The results are similar to that obtained for PEGylated nanoparticles A except for SB-β-CD. The result from SB-β-CD supported the H-bonding mechanism for cryoprotection of PEGylated PLGA nanoparticles since SB-β-CD has less hydroxyl groups than α-CD, γ-CD and HP-β-CD (about ⅓ of —OH groups of β-CD are substituted by sulfobutyl groups).

[8] = Lyophilization of stealth liposome (Doxil); type: physicochemical; conditions: lipids 16 mg/mL, Sucrose lyophilization cycle, post lyophilization
[9] = Cryoprotectant screen, sucrose lyophilization cycle; type: physicochemical; conditions: PEGylated nanoparticles A; for Dv90 / PDI / Zave: reconstituted
Experimental: A cryoprotectant screen was performed as follows.
These conditions are shown below in Table 21.

[10] = q4dq3dx3, 15 mg/kg IV, male C57BL/6 mice
[11] = q7d schedule, three times once every week, 15 mg/kg
[12] = cryoprotectant 100 mg/mL (6.25:1 w/w lipid)
[13] = cryoprotectant 150 mg/mL (12.5:1 w/w lipid)
[14] = cryoprotectant 200 mg/mL (18.5:1 w/w lipid)
[15] = polymer 10.42 mg/mL (Doce. 0.50), cryoprotectant 100 mg/mL (9.6:1 w/w)
[16] = polymer 20.83 mg/mL (Doce. 1.00), cryoprotectant 100 mg/mL (4.8:1 w/w)
[17] = polymer 26.05 mg/mL (Doce. 1.25), cryoprotectant 100 mg/mL (3.8:1 w/w)
[18] = polymer 31.25 mg/mL (Doce. 1.5), cryoprotectant 100 mg/mL (3.2:1 w/w)

doxorubicin 5050 PLGA amide
growth of B16.F10 cells (B16.F10 cells; 24, 48 and 72 hours of incubation): inhibited the growth of B16.F10 cells in a dose and time dependent manner

CC(=O)O[C@H]1C(=O)[C@@]2(C)[C@H]([C@H](OC(=O)c3ccccc3)[C@]3(O)C[C@H](OC(=O)[C@H](O)[C@@H](NC(=O)c4ccccc4)c4ccccc4)C(C)=C1C3(C)C)[C@]1(OC(C)=O)CO[C@@H]1C[C@@H]2O [Free paclitaxel, paclitaxel]
IC50 (B16.F10 cells): 7 µM

COc1cccc2c1C(=O)c1c(O)c3c(c(O)c1C2=O)C[C@@](O)(C(=O)CO)C[C@@H]3O[C@H]1C[C@H](N)[C@H](O)[C@H](C)O1 [Free doxorubicin, doxorubicin]
IC50 (B16.F10 cells): 14 µM

CC(=O)O[C@@]12CO[C@@H]1C[C@H](O)[C@@]1(C)C(=O)[C@H](O)C3=C(C)[C@@H](OC(=O)[C@H](O)[C@@H](NC(=O)OC(C)(C)C)c4ccccc4)C[C@@](O)([C@@H](OC(=O)c4ccccc4)[C@H]21)C3(C)C [Free docetaxel, docetaxel]
IC50 (B16.F10 cells): 0.13 µM
body weight above initial on Day 14 ([1]; 30 mg/kg IV q7d×2): 3%
Lymphocyte mean ([1]; 30 mg/kg IV q7d×2): 4350 cells/μL
Neutrophil mean ([1]; 30 mg/kg IV q7d×2): 556 cells/μL
WBC # mean ([1]; 30 mg/kg IV q7d×2): 5.1 ×1000 cells/μL
mice developing ataxia ([1]; 30 mg/kg IV q7d×2): no mice
body weight above initial on Day 14 ([1]; 45 mg/kg IV q7d×2): 2%
Lymphocyte mean ([1]; 45 mg/kg IV q7d×2): 6780 cells/μL
Neutrophil mean ([1]; 45 mg/kg IV q7d×2): 752 cells/μL
WBC # mean ([1]; 45 mg/kg IV q7d×2): 7.8 ×1000 cells/μL
mice developing ataxia ([1]; 45 mg/kg IV q7d×2, Day 14): One mouse
body weight lost after the second treatment, by the end of the study ([1]; 60 mg/kg IV q7d×2, Day 14): 19%
Lymphocyte mean ([1]; 60 mg/kg IV q7d×2): 5590 cells/μL
Neutrophil mean ([1]; 60 mg/kg IV q7d×2): 470 cells/μL
WBC # mean ([1]; 60 mg/kg IV q7d×2): 6.2 ×1000 cells/μL
mice developing ataxia ([1]; 60 mg/kg IV q7d×2): Five out of five mice
Ataxia (%) ([1]; dose 30 mg/kg): 0%
Ataxia (%) ([1]; dose 45 mg/kg): 20%
Ataxia (%) ([1]; dose 60 mg/kg): 100%
serum chemistry parameters ([1]; doses up to 60 mg/kg): did not affect any serum chemistry parameter
Maximum body weight loss [2]: 14%
Maximum body weight loss ([3]; 30 mg/kg weekly×2): 13%
ataxia ([3]; 30 mg/kg weekly×2): did not cause ataxia
body weight loss ([3]; 60 mg/kg IV Days 51 and 58 (weekly×2), female CD-1 nude mice): greater than 20%
ataxia ([3]; 60 mg/kg weekly×2, four days after the second treatment): observed in all the mice
Maximum body weight loss ([4]; 15 mg/kg IV Days 21 and 28 (weekly×2)): 10%
Maximum body weight loss ([4]; 30 mg/kg IV Days 21 and 28 (weekly×2)): 14%
ataxia ([4]; 30 mg/kg weekly×2): did not cause ataxia
body weight loss ([4]; 60 mg/kg IV Days 21 and 28 (weekly×2), female CD-1 nude mice): greater than 20%
ataxia ([4]; 60 mg/kg weekly×2, listed as docetaxel): developed ataxia
ataxia ([4]; 60 mg/kg weekly×2, listed as free docetaxel): Ataxia was observed
Maximum body weight loss ([5]; q3dq4dx3, 15 mg/kg IV, male C57BL/6 mice, listed as Docetaxel): 12% and 11%
Maximum body weight loss ([5]; q3dq4dx3, 15 mg/kg IV, male C57BL/6 mice, listed as docetaxel): 12% and 11%
Maximum body weight loss [5, 10]: 11%
Tumor growth delay (TGD) [5, 10]: 11 days
Tumor growth inhibition (TGI) [5, 10]: 90%
Maximum body weight loss ([5]; q7dx3, 30 mg/kg IV, male C57BL/6 mice): 11%
Maximum body weight loss ([5]; q14dx2, 60 mg/kg IV, male C57BL/6 mice, listed as Docetaxel): 0%
Maximum body weight loss ([5]; q14dx2, 60 mg/kg IV, male C57BL/6 mice, listed as docetaxel): did not show any body weight loss
Maximum body weight loss [5, 11]: 11%
TGD [5, 11]: 11 days

OC[C@H]1O[C@@](CO)(O[C@H]2O[C@H](CO)[C@@H](O)[C@H](O)[C@H]2O)[C@@H](O)[C@@H]1O [Sucrose, sucrose]
Dv90 [6]: 155 nm
PDI [6]: 0.207
Reconstituted Solution appearance [6]: precipitation
Zave [6]: 197.2 nm
outcome after lyophilization (in place of particle size) [7]: Precipitated
Dv90 [8, 12]: 58.5 nm
PDI [8, 12]: 0.390
Zave [8, 12]: 142.4 nm
Dv90 [8, 13]: 533 nm
PDI [8, 13]: 0.484
Zave [8, 13]: 219.3 nm
Dv90 [8, 14]: 1640 nm
PDI [8, 14]: 0.506
Zave [8, 14]: 200.2 nm
Filtration Loss (0.2 μm PES Filter) [9, 15]: 2%
Lyophilized preparation Appearance [9, 15]: good
Recon. Solution Appearance [9, 15]: good
Dv90 [9, 15]: 120 nm
PDI [9, 15]: 0.081
Zave [9, 15]: 90.62 nm
Filtration Loss (0.2 μm PES Filter) [9, 16]: 2%
Lyophilized preparation Appearance [9, 16]: good
Recon. Solution Appearance [9, 16]: good
Dv90 [9, 16]: 120 nm
PDI [9, 16]: 0.081
Zave [9, 16]: 91.37 nm
Filtration Loss (0.2 μm PES Filter) [9, 17]: 10%
Lyophilized preparation Appearance [9, 17]: good
Recon. Solution Appearance [9, 17]: good
PDI [9, 17]: 0.110
Zave [9, 17]: 92.79 nm
Lyophilized preparation Appearance [9, 18]: good
Recon. Solution Appearance [9, 18]: slight
Filtration Loss (0.2 μm PES Filter) ([9]; polymer 31.25 mg/mL (Doce. 1.50), cryoprotectant 100 mg/mL (3.2:1 w/w)): 15%
PDI [9, 18]: 0.125
Zave [9, 18]: 94.72 nm
